In US7709498B2, “Quinoline derivatives as antibacterial agents” (Janssen Pharmaceutica N.V., priority 2005, dated 2010):
In brackets after ≈: the same amount, converted by molar mass.

Key:
Assay type in all cases: cell-based
[1] = system: Streptococcus pneumoniae (ATCC6305); assay: Microtitre plate assay, IC90 determination, SPN 6305; conditions: 90% inhibitory concentration for bacterial growth, 37° C., resazurin fluorescence; for IC90: Streptococcus pneumoniae, ATCC6305, 24 h, read-out: IC90 (μg/ml) SPN 6305; for IC90 (μg/ml) SPN 6305: 24 hours
Method: (§1) The bacteria used in this study were grown overnight in flasks containing 100 ml Mueller-Hinton Broth (Becton Dickinson—cat. no. 275730) in sterile de-ionized water, with shaking, at 37° C. Stocks (0.5 ml/tube) were stored at −70° C. until use. Bacteria titrations were performed in microtiter plates to detect the TCID50, in which the TCID50 represents the dilution that gives rise to bacterial growth in 50% of inoculated cultures.
(§2) In general, an inoculum level of approximately 100 TCID50 was used for susceptibility testing.
(§3) Flat-bottom, sterile 96-well plastic microtiter plates were filled with 180 μl of sterile deionized water, supplemented with 0.25% BSA. Subsequently, stock solutions (7.8× final test concentration) of compounds were added in 45 μl volumes in column 2. Serial five-fold dilutions (45 μl in 180 μl) were made directly in the microtiter plates from column 2 to reach column 11. Untreated control samples with (column 1) and without (column 12) inoculum were included in each microtiter plate. Depending on the bacteria type, approximately 10 to 60 CFU per well of bacteria inoculum (100 TCID50), in a volume of 100 μl in 2.8× Mueller-Hinton broth medium, was added to the rows A to H, except column 12. The same volume of broth medium without inoculum was added to column 12 in row A to H. The cultures were incubated at 37° C. for 24 hours under a normal atmosphere (incubator with open air valve and continuous ventilation). At the end of incubation, one day after inoculation, the bacterial growth was quantitated fluorometrically. Therefore resazurin (0.6 mg/ml) was added in a volume of 20 μl to all wells 3 hours after inoculation, and the plates were re-incubated overnight. A change in colour from blue to pink indicated the growth of bacteria. The fluorescence was read in a computer-controlled fluorometer (Cytofluor Biosearch) at an excitation wavelength of 530 nm and an emission wavelength of 590 nm. The % growth inhibition achieved by the compounds was calculated according to standard methods. The IC90 (expressed in μg/ml) was defined as the 90% inhibitory concentration for bacterial growth.
(§4) BSU 3639 means Bacillus subtilis (ATCC43639); ECO 25922 means Escherichia coli (ATCC25922); EFA 14506 means Enterococcus faecalis (ATCC14506); EFA 29212 means Enterococcus faecalis (ATCC29212); LMO 49594 means Listeria monocytogenes (ATCC49594); PAE 27853 means Pseudomonas aeruginosa (ATCC27853); SMU 33402 means Streptococcus mutans (ATCC33402); SPN 6305 means Streptococcus pneumoniae (ATCC6305); SPY 8668 means Streptococcus pyogens (ATCC8668); STA 43300 means Staphylococcus aureus (ATCC43300); STA 25923 means Staphylococcus aureus (ATCC25923); STA 29213 means Staphylococcus aureus (ATCC29213); STA RMETH means methicilline resistant Staphylococcus aureus (MRSA) (a clinical isolate from the University of Antwerp). ATCC means American type tissue culture.

[2] = system: Listeria monocytogenes (ATCC49594); assay: Microtitre plate assay, IC90 determination, LMO 49594; conditions: 90% inhibitory concentration for bacterial growth, 37° C., resazurin fluorescence; for IC90: Listeria monocytogenes, ATCC49594, 24 h, read-out: IC90 (μg/ml) LMO 49594; for IC90 (μg/ml) LMO 49594: 24 hours
Method: as §1, §2, §3, §4

[3] = system: Streptococcus mutans (ATCC33402); assay: Microtitre plate assay, IC90 determination, SMU 33402; conditions: 90% inhibitory concentration for bacterial growth, 37° C., resazurin fluorescence; for IC90: Streptococcus mutans, ATCC33402, 24 h, read-out: IC90 (μg/ml) SMU 33402; for IC90 (μg/ml) SMU 33402: 24 hours
Method: as §1, §2, §3, §4

[4] = system: Streptococcus pyogens (ATCC8668); assay: Microtitre plate assay, IC90 determination, SPY 8668; conditions: 90% inhibitory concentration for bacterial growth, 37° C., resazurin fluorescence; for IC90: Streptococcus, ATCC8668, 24 h, read-out: IC90 (μg/ml) SPY 8668
Method: as §1, §2, §3, §4

COc1nc2ccc(Br)cc2cc1C(c1ccccc1)C(O)(CCN(C)C)c1ccccc1 (stereo not shown) [Compound 4]
IC90 [1]: 12.7 µg/mL (≈ 25.1 µM)

COc1nc2ccc(-c3ccco3)cc2cc1C(c1ccccc1)C(O)(CCN(C)C)c1cccc2ccccc12 (stereo not shown) [Compound H]
IC90 [2]: 13.6 µg/mL (≈ 25.1 µM)
IC90 [1]: 13.6 µg/mL (≈ 25.1 µM)

COc1nc2ccc(Br)cc2cc1C(c1ccccc1)C(O)(CCN(C)C)c1ccc2c(c1)OCCO2 (stereo not shown) [Compound 78]
IC90 [3]: 11.2 µg/mL (≈ 19.9 µM)
IC90 [4]: 11.2 µg/mL (≈ 19.9 µM)
IC90 (μg/ml) SPN 6305 [1]: 11.2 µg/mL (≈ 19.9 µM)

COc1nc2ccc(Br)cc2cc1C(c1ccc(F)cc1)C(O)(CCN(C)C)c1cccc2ccccc12 (stereo not shown) [Compound 206]
IC90 [1]: 12.8 µg/mL (≈ 22.3 µM)

COc1nc2ccc(Br)cc2cc1C(c1ccccc1)C(O)(CCN(C)C)c1cccc(F)c1 (stereo not shown) [Compound 38]
IC90 (μg/ml) LMO 49594 [2]: 10.4 µg/mL (≈ 19.9 µM)

CNCCC(O)(c1ccccc1)C(c1ccccc1)c1cc2cc(Br)ccc2nc1OC (stereo not shown) [Compound D]
IC90 [1]: 4.9 µg/mL (≈ 9.97 µM)

COc1nc2ccccc2cc1C(c1ccccc1)C(O)(CCN(C)C)c1ccccc1 (stereo not shown) [Compound 41]
IC90 [2]: 17 µg/mL (≈ 39.9 µM)

CCN(CC)CCC(O)(c1ccccc1)C(c1ccccc1)c1cc2cc(Br)ccc2nc1OC (stereo not shown) [Compound 19]
IC90 (μg/ml) SPN 6305 [1]: 13.4 µg/mL (≈ 25.1 µM)

COc1nc2ccc(Br)cc2cc1C(c1ccccc1)C(O)(CCN(C)C)c1cc(F)ccc1F (stereo not shown) [Compound 67]
IC90 [2]: 10.8 µg/mL (≈ 19.9 µM)
IC90 [1]: 13.6 µg/mL (≈ 25.1 µM)

COc1nc2cc(C)c(Br)cc2cc1C(c1ccccc1)C(O)(CCN(C)C)c1cccc(F)c1 (racemic) [Compound 215]
IC90 (μg/ml) LMO 49594 [2]: 10.7 µg/mL (≈ 19.9 µM)

COc1nc2ccc(Br)cc2cc1C(c1ccccc1)C(O)(CCN1CCOCC1)c1ccc2ccccc2c1 (racemic) [Compound 139]
IC90 (μg/ml) SMU 33402 [3]: 18.9 µg/mL (≈ 31.6 µM)
IC90 (μg/ml) SPN 6305 [1]: 26.7 µg/mL (≈ 44.7 µM)

COc1nc2ccc(Br)cc2cc1C(c1ccccc1)C(O)(CCN(C)C)c1cc(F)cc(F)c1 (stereo not shown) [Compound 116]
IC90 [2]: 10.8 µg/mL (≈ 19.9 µM)

COc1nc2ccc(Br)cc2cc1C(c1ccccc1)C(O)(CCN1CCCCC1)c1ccc2ccccc2c1 (stereo not shown) [Compound 129]
IC90 [3]: 11.9 µg/mL (≈ 20 µM)
IC90 [4]: 11.9 µg/mL (≈ 20 µM)
IC90 [1]: 15 µg/mL (≈ 25.2 µM)

COCCOc1nc2ccc(Br)cc2cc1C(c1ccccc1)C(O)(CCN(C)C)c1cccc(F)c1 (racemic) [Compound 165]
IC90 (μg/ml) SMU 33402 [3]: 14.3 µg/mL (≈ 25.2 µM)
IC90 (μg/ml) SPY 8668 ([4]; 24 hours): 11.3 µg/mL (≈ 19.9 µM)
IC90 (μg/ml) SPN 6305 [1]: 14.3 µg/mL (≈ 25.2 µM)

COc1nc2cc(C)c(C)cc2cc1C(c1ccccc1)C(O)(CCN(C)C)c1cccc2ccccc12 (racemic) [Compound 229]
IC90 (μg/ml) SMU 33402 [3]: 22.5 µg/mL (≈ 44.6 µM)
IC90 (μg/ml) SPN 6305 [1]: 5.0 µg/mL (≈ 9.91 µM)

COc1nc2ccc(Br)cc2cc1C(c1ccccc1)C(O)(CCN1CCN(C)CC1)c1cccc2ccccc12 (racemic) [Compound 149]
IC90 (μg/ml) LMO 49594 [2]: 12.2 µg/mL (≈ 20 µM)

COc1nc2ccc(Br)cc2cc1C(c1ccccc1)C(O)(CCN1CCOCC1)c1ccc2ccccc2c1 (racemic) [Compound 140]
IC90 (μg/ml) SMU 33402 [3]: 9.5 µg/mL (≈ 15.9 µM)

COc1nc2ccc(Br)cc2cc1C(c1ccccc1)C(O)(CCn1cncn1)c1ccccc1 (racemic) [Compound 53]
IC90 (μg/ml) SPN 6305 [1]: 5.9 µg/mL (≈ 11.1 µM)

COc1nc2ccc(Br)cc2cc1C(c1ccccc1)C(O)(CCN(C)C)c1cccs1 (stereo not shown) [Compound 20]
IC90 (μg/ml) SPN 6305 [1]: 2.6 µg/mL (≈ 5.08 µM)

COc1nc2ccc(Br)cc2cc1C(c1ccccc1)C(O)(CCN(C)C)c1cccc(F)c1 (stereo not shown) [Compound 108]
IC90 (μg/ml) SPN 6305 [1]: 13.1 µg/mL (≈ 25 µM)

COc1nc2ccc(Br)cc2cc1C(c1ccccc1)C(O)(CCN1CCCC1)c1ccc2ccccc2c1 (stereo not shown) [Compound 170]
IC90 [1]: 26 µg/mL (≈ 44.7 µM)

COc1nc2ccc(-c3ccco3)cc2cc1C(c1ccccc1)C(O)(CCN(C)C)c1cccc(F)c1 (stereo not shown) [Compound 174]
IC90 [2]: 10.2 µg/mL (≈ 20 µM)

COc1nc2ccc(Br)cc2cc1C(c1ccccc1)C(O)(CCN(C)C)c1cccc(F)c1F (stereo not shown) [Compound 113]
IC90 [2]: 10.8 µg/mL (≈ 19.9 µM)
IC90 [1]: 13.6 µg/mL (≈ 25.1 µM)
